Laboratory results reported in patent publication US20250098720A1, “SWEETENER COMPOSITIONS” (Firmenich SA, priority 2022, published 2025).

Legend:
[1] = Sensory experiment, trained panel, sweet base (water solution containing sucrose at 4%); format: in vivo, human; details: 10 ppm compound in 4% sucrose base; twenty trained panelists
Method: (§1) Methodology: compounds 101 and 108 were evaluated as sweet modifiers in a sweet (water solution containing sucrose at 4%) or a sweet-sour base (mixture of inverted sugar and citric acid at 7% and 0.15%) at 10 ppm. Twenty trained panelists were asked to compare the intensity difference between reference and compound 101 or compound 108. The taste properties (such as sweet, sour) were evaluated on a scale of −5 to 5 (−5 denoted strong masking effect and 5 denoted strong enhancing effect, 0 being the intensity of reference.

[2] = Sensory experiment, trained panel, sweet-sour base (inverted sugar 7% and citric acid 0.15%); format: in vivo, human; details: 10 ppm compound in sweet-sour base of inverted sugar 7% and citric acid 0.15%
Method: as §1

[3] = pH value of the sweet-sour base with compound; format: physicochemical; details: 10 ppm compound in sweet-sour base of inverted sugar and citric acid

Q: Which “sweet intensity versus reference (scale -5 to 5)” value (“sweet intensity versus reference” below) [1] does the source give for COc1cc(O)c(C(=O)CCc2ccc(O)cc2)c(O)c1C [compound 101] here?
A: The value was “can increase sweet intensity”.

Q: What about the “sour intensity versus reference (scale -5 to 5)” value [2] of the same compound?
A: The value was “significantly increase”.

Q: What about the “sweet intensity versus reference” value [2] of the same compound?
A: Its value is “significantly increase”.

Q: And the “pH value of the base” value [3]?
A: The value was “without changing the pH value”.

Q: For O=C1CC(c2ccc(O)cc2)c2c(cc(O)c(C(=O)CCc3ccc(O)cc3)c2O)O1 (centres unmarked) [compound 108], which “sweet intensity versus reference” value [1] is on record?
A: The value was “can increase sweet intensity”.
